These results are taken from patent US20230073755A1, “USE OF IGF1 IN COMBINATION WITH IGFEC24 IN PREPARATION OF MEDICINE FOR PROMOTING TISSUE REPAIR AND REGENERATION” (Chongqing University, priority 2020, published 2023).

Assay [1] concerns neuronal cells. The assay is described as follows: Neuroproliferation and neural differentiation (Edu / DCX, hippocampal dentate gyrus), 13-month-old C57 mice. In kind it is in vivo. As for the experimental part:
Female 13-month-old mice were divided into 2 groups, PBS group and IGF1-24 group, with 6 mice in each group, and the mice in each group were distinguished by ear tags for subsequent protein injection according to the different body weights of the mice. The mice in each group were injected with PBS and IGF1-24 for 7 consecutive days, and the recombinant protein IGF1-24 was injected at 100 μg/kg. After seven days of protein injection, Edu solution at a concentration of […] was injected intraperitoneally for seven consecutive days, so that the final total dose of each mouse reached 50 mg/kg. […]
Remove frozen sections from −20° C. and restore to room temperature; wash 3 times 10 min/time with PBS; permeabilize sections in 0.5% Triton for 30 min; wash 3 times 10 min/time with PBS; draw circles around the tissue with an immunohistochemistry pen and add 5% BSA dropwise for 1 h; aspirate 5% BSA and incubate at 4° C. with double cortin DCX primary antibody (1:500) dropwise overnight; PBS wash 3 times for 10 min/time; incubate FITC secondary antibody for 1 h; PBS wash 3 times for 10 min/time; incubate Edu dye for 1 h; PBS wash 3 times for 10 min/time; incubate DAPI for 10 min; PBS wash 3 times for 10 min/time; observe fluorescence under fluorescence microscope. […]

Assay [2] has as its system neuronal cells. The experiment in a line: Neuroproliferation effect (Edu / DCX immunofluorescence, hippocampal dentate gyrus), adult female SD rats. Conditions: FIG. 4. It is filed as in vivo. As for the experimental part: In certain embodiments, adult female SD rats were divided into five groups: PBS group, IGF1 group, IGF1Ec group, IGF1-24 group, and IGF1+IGF1Ec24 peptide group, with three rats in each group. The rats in each group were distinguished by ear clipping for subsequent protein injection according to the different body weights of the rats.
The rats in each group were injected with PBS, IGF1, IGF1Ec24 peptide, IGF1Ec and IGF1-24 for 7 consecutive days. Recombinant protein IGF1-24 was injected at 100 μg/kg, and the injection of the remaining proteins in each group was converted according to the molar amount of IGF1-24 injection as follows: 90 μg/kg for IGF1, 8.9 μg/kg for IGF1Ec24 peptide, 104 μg/kg for IGF1Ec.
After seven days of protein injection, the intraperitoneal injection of Edu solution at a concentration of 2.5 mg/kg was performed for seven days, so that the final total dose of each rat reached 50 mg/kg. […]
The microscope was selected with a 20× lens to observe the fluorescence staining of the dentate gyrus in the whole hippocampal region; the number of immature neurons and the number of newly proliferating neuronal cells in the dentate gyrus of the hippocampus were recorded.

For “IGF1-24: 97 amino acids: amino-terminal 70 identical to IGF1, carboxyl-terminal 24 identical to IGFEc24 peptide, joined by three Gly linkers (SEQ ID NO: 4)”, the “immature neuronal cells (neural differentiation assay)” value with neuronal cells [1] (PBS group 0.68%, FIG. 7) is recorded as 1.01%. The “proliferation of neuronal cells” value in the assay on neuronal cells [1] (hippocampal dentate gyrus, PBS group 0.24%, FIG. 5-6) is given as 0.47%; in the assay with neuronal cells [2], 10%.
